Columns and labels:
[1] = target: Transcriptional enhancer factor TEF-4 (Homo sapiens) (UniProt Q15562); test: Thermal stabilization of C-terminal human TEAD2 (217 to 447 residues) assessed as change in melting temperature by thermal shift assay
[2] = target: Transcriptional enhancer factor TEF-1 (Homo sapiens) (UniProt P28347); test: Binding affinity to recombinant TEAD1 (unknown origin) assessed as increase in thermal stability by thermal shift assay
[3] = target: Transcriptional enhancer factor TEF-4 (Homo sapiens) (UniProt Q15562); test: Binding affinity to recombinant TEAD2 (unknown origin) assessed as increase in thermal stability by thermal shift assay

Sequence of Transcriptional enhancer factor TEF-4 (Homo sapiens) (Q15562 whole entry, the tested form may be a part): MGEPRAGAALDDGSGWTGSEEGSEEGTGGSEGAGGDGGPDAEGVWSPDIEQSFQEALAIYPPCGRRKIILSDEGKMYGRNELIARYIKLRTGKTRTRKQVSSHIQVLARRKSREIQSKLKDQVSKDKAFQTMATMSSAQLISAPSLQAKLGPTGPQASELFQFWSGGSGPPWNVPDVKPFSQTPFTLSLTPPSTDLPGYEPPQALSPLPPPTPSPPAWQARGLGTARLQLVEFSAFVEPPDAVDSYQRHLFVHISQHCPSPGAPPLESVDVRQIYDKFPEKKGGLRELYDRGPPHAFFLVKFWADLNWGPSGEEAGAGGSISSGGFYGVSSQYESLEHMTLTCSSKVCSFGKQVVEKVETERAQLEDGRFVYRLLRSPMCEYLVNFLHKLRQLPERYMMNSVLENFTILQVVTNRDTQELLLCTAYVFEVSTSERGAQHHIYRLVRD
Sequence of Transcriptional enhancer factor TEF-1 (Homo sapiens) (P28347 whole entry): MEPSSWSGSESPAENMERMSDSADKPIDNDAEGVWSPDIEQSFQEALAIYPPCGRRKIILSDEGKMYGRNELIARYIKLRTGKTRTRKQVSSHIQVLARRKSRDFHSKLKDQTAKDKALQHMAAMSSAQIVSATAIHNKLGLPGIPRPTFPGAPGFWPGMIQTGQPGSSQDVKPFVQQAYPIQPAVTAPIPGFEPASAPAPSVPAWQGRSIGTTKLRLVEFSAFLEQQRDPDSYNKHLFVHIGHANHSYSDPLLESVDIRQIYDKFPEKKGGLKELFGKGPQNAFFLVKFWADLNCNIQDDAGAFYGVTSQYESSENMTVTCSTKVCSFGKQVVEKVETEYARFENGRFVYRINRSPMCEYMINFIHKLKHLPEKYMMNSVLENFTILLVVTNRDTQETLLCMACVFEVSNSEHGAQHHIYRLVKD

ΔTm [1] [°C]	deltaT [2] [°C]	deltaT [3] [°C]	SMILES
0.95			Nc1cccc(-c2cc[nH]n2)c1
	8.3	4.2	CNS(=O)(=O)c1ccc(Nc2ccc(C(F)(F)F)cc2)c(-c2cn(C)cn2)c1
